The test system of one data set is Guinea-pig Ileus. The experiment in a line: spasmolytic activity in vitro, Guinea-pig Ileus.
Data set [1] deals with Phenylbutazone-histamine ulcer. The experiment in a line: Anti-ulcer activity: Phenylbutazone-histamine ulcer. Format: in vivo.
Data set [2] concerns Ulcer due to activity prevention. The data set is described as follows: Anti-ulcer activity: Ulcer due to activity prevention (Rossi & Coll.). The data set is classed as in vivo.
A further data set concerns Wistar rats. The experiment in a line: Sub-chronic toxicity (30 days per ora). Format: in vivo. Conditions: oral 400 mg/kg. The procedure:
(2) Sub-chronic toxicity (C/63)
Eighty Wistar rats were divided in 4 groups of twenty each (10 males and 10 fewales). Compound (C/63) was given per ora to three groups of animals for a period of 30 days in quantities of 100, 200 and 400 mg/kg.

Another data set can be described thus: acute toxicity, mice. Conditions: mouse, in vivo, read-out: DL/50 (the source's name).
The next data set has as its system Shay ulcer. The data set is described as follows: Anti-ulcer activity: Shay ulcer. The data set is classed as in vivo. Conditions: 300 mg/kg os.
The test system of another data set is intestine peristaltis. The experiment in a line: spasmolytic activity in vivo: activity on intestine peristaltis (mouse). The source says: Activity of C/63 on intestine peristaltis (mouse)
A further data set has as its system Withdrawal ulcer. The experiment in a line: Anti-ulcer activity: Withdrawal ulcer. The note with it: 100 mg/kg os. The data set is classed as in vivo.
The subject of the next data set is Reserpine ulcer. The experiment in a line: Anti-ulcer activity: Reserpine ulcer with rats. The data set is classed as in vivo.
The nature of another data set: acute toxicity, rats. The note with it: rat, in vivo, po, os, read-out: DL/50 (the source's name).

Some results are limits rather than exact numbers.

In the case of `O=C(CN1CCNCC1)NC1CCCCC1` [C/63, N-[1-piperazinylacetyl]-cyclohexylamine], the “DE50 against Ach.” value in the data set on Guinea-pig Ileus (against Ach.) was more than 40 µg/mL. In the data set on Guinea-pig Ileus (against BaCl2), the “DE50 against BaCl2” value is more than 40 µg/mL. The compound further registered a DE50 against histamine in the data set on Guinea-pig Ileus (against histamine) of more than 40 µg/mL. The Inhibition % in data set [1] (25 mg/kg os) was 10%; in data set [1] (50 mg/kg os) it was 43%; in data set [1] (100 mg/kg os), 72%; in data set [2] (50 mg/kg os), 19%; in data set [2] (100 mg/kg os) it was 32%; in data set [2] (200 mg/kg os), 45%. Further, the Inhibition % in the data set with Shay ulcer worked out at 72%; in the data set on intestine peristaltis (100 mg/kg os) it was 6%; in the data set with intestine peristaltis (200 mg/kg os), 23%; in the data set with Withdrawal ulcer, 33%; in the data set with Reserpine ulcer (300 mg/kg os), 25%. Moreover, the “appearance of damages due to toxicity (bloodcrasis, biochemical blood analysis, weight, histological examination of the organs)” value in the data set with Wistar rats is listed as “no appearance of damages due to the toxicity of the drug”. Also, the LD50 in “acute toxicity, mice” (iv) turned out to be 271 mg/kg; in “acute toxicity, mice” (po, os), 1970 mg/kg; in “acute toxicity, rats” it was 3900 mg/kg.
In the case of `CC1CCC(NC(=O)CN2CCNCC2)CC1` (stereo not drawn) [C/82, N-(1-piperazinylacetyl)-4-methyl-cyclohexylamine], the Inhibition % in [1] (50 mg/kg os) came out at 33%; in [1] (100 mg/kg os), 60%; in data set [2] (100 mg/kg os) it was 30%; in data set [2] (200 mg/kg os), 35%; with Withdrawal ulcer it was 30%; in the data set on Reserpine ulcer (100 mg/kg os), 47%. In the data set with Reserpine ulcer (300 mg/kg os), this compound came in with an Inhibition % of 70%. Further, the anticholinergic activity entry in the data set “anticholinergic activity” is “no anticholinergic activity”. The LD50 in “acute toxicity, mice” (po, os) was found to be 1790 mg/kg.
